Assay results: US7361743B2 (Pfizer Inc, priority 2004, dated 2008)
Converted amounts (≈) assume the structure as drawn. Where two headings read alike, the source gives them in different places.

Key:
Type in all cases: cell-based
[1] = test system: Haemophilus influenzae; assay: Susceptibility testing, NCCLS microdilution MIC; conditions: for MIC: Haemophilus influenzae
[2] = test system: Enterococcus faecalis; assay: Susceptibility testing, NCCLS microdilution MIC; conditions: for MIC: Enterococcus faecalis
[3] = test system: Bacteroides fragilis; assay: Susceptibility testing, NCCLS microdilution MIC (anaerobe); conditions: for MIC: Bacteroides fragilis
[4] = test system: Staphylococcus aureus; assay: Susceptibility testing, NCCLS microdilution MIC; conditions: ATCC25923, S. aureus ATCC 25923, Example A′, read-out: MIC S. aureus
[5] = ATCC31517, Example A′, strain ATCC 31517, 24 h at 35° C., read-out: MIC against H. influenzae strain ATCC 31517
[6] = Example A′, strain ATCC29212, 24 h at 35° C., read-out: MIC against Enterococcus faecalis strain ATCC29212
[7] = ATCC31517, H. influenzae ATCC 31517, NCCLS microdilution, read-out: MIC H. influenzae
[8] = ATCC29212, E. faecalis ATCC 29212, NCCLS microdilution, read-out: MIC E. faecalis
[9] = Example A, strain ATCC29212, 16-20 h at 35° C., read-out: MIC against Enterococcus faecalis strain ATCC29212
[10] = ATCC25285, B. fragilis ATCC 25285, NCCLS microdilution, anaerobe, read-out: MIC B. fragilis
[11] = Example A, strain ATCC25285, anaerobe, 35° C. for 46-48 h, read-out: MIC against Bacteroides fragilis strain ATCC25285
[12] = ATCC31517, H. influenzae ATCC 31517, Example A′, read-out: MIC H. influenzae
[13] = ATCC29212, E. faecalis ATCC 29212, Example A′, read-out: MIC E. faecalis
[14] = ATCC25285, B. fragilis ATCC 25285, Example A′, read-out: MIC B. fragilis
[15] = ATCC31517, Example A, strain ATCC 31517, 16-20 h at 35° C., read-out: MIC against H. influenzae strain ATCC 31517

Structure (SMILES)	MIC [1, 5]	MIC [2, 6]	MIC [1, 7]	MIC [2, 8]	MIC [2, 9]	MIC [3, 10]	MIC [3, 11]	also measured
CS[C@H]1O[C@H]([C@H](NC(=O)[C@@H]2C[C@@H](C/C=C/c3ccncc3)CN2)C(C)C)[C@H](O)[C@H](O)[C@H]1O (stereo in doubt) [Example 2, 4-(3-Pyridin-4-yl-allyl)-pyrrolidine-2-carboxylic acid [2-methyl-1-(3,4,5-trihydroxy-6-methylsulfanyl-tetrahydro-pyran-2-yl)-propyl]-amide]	≥ 0.5 µg/mL							
CS[C@H]1O[C@H]([C@H](NC(=O)[C@@H]2C[C@@H](CCCc3ccncc3)CN2)C(C)C)[C@H](O)[C@H](O)[C@H]1O (stereo in doubt) [Example 3, 4-(3-Pyridin-4-yl-propyl)-pyrrolidine-2-carboxylic acid [2-methyl-1-(3,4,5-trihydroxy-6-methylsulfanyl-tetrahydro-pyran-2-yl)-propyl]-amide]	≥ 0.5 µg/mL	≤ 0.125 µg/mL						
CCCCS[C@@H]1CN[C@H](C(=O)N[C@@H]([C@H]2O[C@H](SC)[C@H](O)[C@@H](O)[C@H]2O)[C@@H](C)O)C1 (stereo in doubt) [Example 4, 4-Butylsulfanyl-pyrrolidine-2-carboxylic acid [2-hydroxy-1-(3,4,5-trihydroxy-6-methylsulfanyl-tetrahydro-pyran-2-yl)-propyl]-amide]	≥ 0.5 µg/mL	≤ 0.125 µg/mL						
CCS[C@@H]1CN[C@H](C(=O)N[C@@H]([C@H]2O[C@H](SC)[C@H](O)[C@@H](O)[C@H]2O)[C@H](C)Cl)C1 (stereo in doubt) [Example 8, 4-Ethylsulfanyl-pyrrolidine-2-carboxylic acid [2-chloro-1-(3,4,5-trihydroxy-6-methylsulfanyl-tetrahydro-pyran-2-yl)-propyl]-amide]	≥ 0.5 µg/mL	≤ 0.125 µg/mL						
CS[C@H]1O[C@H]([C@H](NC(=O)[C@@H]2C[C@H](Sc3ccc(F)cc3)CN2)[C@@H](C)O)[C@H](O)[C@H](O)[C@H]1O (stereo in doubt) [Example 10, 4-(4-Fluoro-phenylsulfanyl)-pyrrolidine-2-carboxylic acid [2-hydroxy-1-(3,4,5-trihydroxy-6-methylsulfanyl-tetrahydro-pyran-2-yl)-propyl]-amide]	≥ 0.5 µg/mL	≤ 0.125 µg/mL						
CS[C@H]1O[C@H]([C@H](NC(=O)[C@@H]2C[C@H](SCCC(C)C)CN2)[C@@H](C)O)[C@H](O)[C@H](O)[C@H]1O (stereo in doubt) [Example 12, 4-(3-Methyl-butylsulfanyl)-pyrrolidine-2-carboxylic acid [2-hydroxy-1-(3,4,5-trihydroxy-6-methylsulfanyl-tetrahydro-pyran-2-yl)-propyl]-amide]	≥ 0.5 µg/mL							
CS[C@H]1O[C@H]([C@H](NC(=O)[C@@H]2C[C@@H](CC=C(F)F)CN2)C(C)C)[C@H](O)[C@H](O)[C@H]1O [Example 1, 4-(3,3-difluoroprop-2-ene)-pyrrolidine-2-carboxylic acid [2-methyl-1-(3,4,5-trihydroxy-6-methylsulfanyl-tetrahydro-pyran-2-yl)-propyl]-amide]	≥ 0.5 µg/mL							
CCS[C@@H]1CN[C@H](C(=O)N[C@@H]([C@H]2O[C@H](SC)[C@H](O)[C@@H](O)[C@H]2O)[C@@H](C)O)C1 [Example 5, 4-Ethylsulfanyl-pyrrolidine-2-carboxylic acid [2-hydroxy-1-(3,4,5-trihydroxy-6-methylsulfanyl-tetrahydro-pyran-2-yl)-propyl]-amide]	≥ 0.5 µg/mL	≤ 0.125 µg/mL						
CS[C@H]1O[C@H]([C@H](NC(=O)[C@@H]2C[C@H](SCCC(F)(F)F)CN2)[C@@H](C)O)[C@H](O)[C@H](O)[C@H]1O [Example 11, 4-(3,3,3-Trifluoro-propylsulfanyl)-pyrrolidine-2-carboxylic acid [2-hydroxy-1-(3,4,5-trihydroxy-6-methylsulfanyl-tetrahydro-pyran-2-yl)-propyl]-amide]	≥ 0.5 µg/mL	≤ 0.125 µg/mL						
CCOCCC[C@@H]1CCN[C@H](C(=O)N[C@@H]([C@H]2O[C@H](SC)[C@H](O)[C@@H](O)[C@H]2O)[C@H](C)Cl)CC1 [Example 19′, 5-(3-Ethoxy-propyl)-azepane-2-carboxylic acid [2-chloro-1-(3,4,5-trihydroxy-6-methylsulfanyl-tetrahydro-pyran-2-yl)-propyl]-amide]								MIC [1, 12]: 4 µg/mL (≈ 8.28 µM); MIC [2, 13]: 2 µg/mL (≈ 4.14 µM); MIC [3, 14]: 8 µg/mL (≈ 16.6 µM); MIC [4]: 0.125 µg/mL (≈ 0.259 µM)
CS[C@H]1O[C@H]([C@H](NC(=O)[C@@H]2CC[C@H](CCCOCCF)CCN2)[C@H](C)Cl)[C@H](O)[C@H](O)[C@H]1O [Example 20′, 5-[3-(2-Fluoro-ethoxy)-propyl]-azepane-2-carboxylic acid [2-chloro-1-(3,4,5-trihydroxy-6-methylsulfanyl-tetrahydro-pyran-2-yl)-propyl]-amide]								MIC [1, 12]: 2 µg/mL (≈ 3.99 µM); MIC [2, 13]: 2 µg/mL (≈ 3.99 µM); MIC [3, 14]: 8 µg/mL (≈ 16 µM); MIC [4]: 0.125 µg/mL (≈ 0.249 µM)

Second part, led by results:

MIC [1, 5]	MIC [2, 6]	MIC [1, 7]	MIC [2, 8]	MIC [2, 9]	MIC [3, 10]	MIC [3, 11]	Structure (SMILES)	also measured
		2 µg/mL (≈ 4.3 µM)	0.03 µg/mL (≈ 0.0645 µM)	≤ 0.125 µg/mL	0.125 µg/mL (≈ 0.269 µM)	≤ 0.5 µg/mL	CS[C@H]1OC([C@H](NC(=O)[C@@H]2C[C@H](CCC3CCC3)CCN2)[C@H](C)Cl)[C@H](O)[C@H](O)[C@H]1O (stereo in doubt) [Example 81, 4-(2-Cyclobutyl-ethyl)-piperidine-2-carboxylic acid [2-chloro-1-(3,4,5-trihydroxy-6-methylsulfanyl-tetrahydro-pyran-2-yl)-propyl]-amide]	
		2 µg/mL (≈ 4.43 µM)	0.125 µg/mL (≈ 0.277 µM)	≤ 0.125 µg/mL	0.25 µg/mL (≈ 0.554 µM)	≤ 0.5 µg/mL	CS[C@H]1OC([C@H](NC(=O)[C@@H]2C[C@H](CC3CCC3)CCN2)[C@H](C)Cl)[C@H](O)[C@H](O)[C@H]1O (stereo in doubt) [Example 82, 4-Cyclobutylmethyl-piperidine-2-carboxylic acid [2-chloro-1-(3,4,5-trihydroxy-6-methylsulfanyl-tetrahydro-pyran-2-yl)-propyl]-amide]	
		0.5 µg/mL (≈ 1.14 µM)	0.125 µg/mL (≈ 0.285 µM)	≤ 0.125 µg/mL	0.125 µg/mL (≈ 0.285 µM)	≤ 0.5 µg/mL	CCCC1CCN[C@H](C(=O)N[C@@H]([C@H]2O[C@H](SC)[C@H](O)[C@@H](O)[C@H]2O)[C@H](C)Cl)CC1 (stereo partly shown) [Example 47, 5-Propyl-azepane-2-carboxylic acid [2-chloro-1-(3,4,5-trihydroxy-6-methylsulfanyl-tetrahydro-pyran-2-yl)-propyl]-amide]	MIC [1, 15]: 0.5 µg/mL (≈ 1.14 µM); MIC ([1]; Example A, strain not stated, 16-20 h at 35° C., read-out: MIC against Haemophilus influenzae): ≥ 4 µg/mL
		0.5 µg/mL (≈ 1.1 µM)	0.03 µg/mL (≈ 0.0662 µM)	≤ 0.125 µg/mL	0.125 µg/mL (≈ 0.276 µM)	≤ 0.5 µg/mL	CCCCC1CCN[C@H](C(=O)N[C@@H]([C@H]2O[C@H](SC)[C@H](O)[C@@H](O)[C@H]2O)[C@H](C)Cl)CC1 (stereo partly shown) [Example 144, 5-Butyl-azepane-2-carboxylic acid [2-chloro-1-(3,4,5-trihydroxy-6-methylsulfanyl-tetrahydro-pyran-2-yl)-propyl]-amide]	MIC [1, 15]: 0.5 µg/mL (≈ 1.1 µM)
		0.5 µg/mL (≈ 1.07 µM)	0.125 µg/mL (≈ 0.268 µM)	≤ 0.125 µg/mL	0.5 µg/mL (≈ 1.07 µM)	≤ 0.5 µg/mL	CCCCCC1CCN[C@H](C(=O)N[C@@H]([C@H]2O[C@H](SC)[C@H](O)[C@@H](O)[C@H]2O)[C@H](C)Cl)CC1 (stereo partly shown) [Example 145, 5-Pentyl-azepane-2-carboxylic acid [2-chloro-1-(3,4,5-trihydroxy-6-methylsulfanyl-tetrahydro-pyran-2-yl)-propyl]-amide]	MIC [1, 15]: 0.5 µg/mL (≈ 1.07 µM)
8 µg/mL (≈ 18.8 µM)	> 8 µg/mL	8 µg/mL (≈ 18.8 µM)	> 8 µg/mL	> 8 µg/mL	2 µg/mL (≈ 4.71 µM)	2 µg/mL (≈ 4.71 µM)	CCC[C@@H]1C[C@@H](C(=O)N[C@@H]([C@H]2O[C@H](SC)[C@H](O)[C@@H](O)[C@H]2O)[C@H](C)Cl)N(C)C1 [clindamycin, reference compound]	MIC H. influenzae ([1]; H. influenzae ATCC 31517, Example A′): 8 µg/mL (≈ 18.8 µM); MIC [1, 15]: 8 µg/mL (≈ 18.8 µM); MIC E. faecalis ([2]; E. faecalis ATCC 29212, Example A′): >8 µg/mL; MIC B. fragilis ([3]; B. fragilis ATCC 25285, Example A′): 2 µg/mL (≈ 4.71 µM); MIC [4]: 0.125 µg/mL (≈ 0.294 µM)
